What all share (assay): DTP human tumour cell line panel, 48 h
Assay [1] deals with SW-620 colon.
Assay [2] has as its system SF-539 CNS.
For assay [3], the system named is CCRF-CEM leukemia.
For assay [4], the system named is RXF 393 renal.
Assay [5] deals with HOP-62 NSCLC.
Assay [6] deals with HCC-2998 colon.
For assay [7], the system named is MALME-3M melanoma.
The subject of assay [8] is KM12 colon.
For assay [9], the system named is SN12C renal.

The record followed here is PubChem BioAssay (NCI).

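Five compound concentrations were applied to cells in 96-well plates for 48 hours; endpoints were derived by simple linear interpolation of the resulting dose-response curve. GI50: concentration for 50% inhibition of growth. TGI is the concentration that stops growth completely.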

Usually TGI stands for the concentration giving total growth inhibition. Broadly, the GI50 is the concentration giving 50% growth inhibition.

For the molecule `CCc1ccc(Cc2ccc(CC)c(NC(=O)C(=O)Cc3nc4ccccc4nc3C)c2CC)c(CC)c1NC(=O)C(=O)Cc1nc2ccccc2nc1C`, the TGI in assay [1], in assay [2], in assay [3], in assay [4], in assay [5] and in assay [6] was over 100 µM in each case. Moreover, the concentration for total growth inhibition (TGI) in assay [7] and in assay [8] was over 100 µM in each case.
For the molecule `CN(C)C1(C#N)CCC2(CC1)OCCO2`, the TGI in [9], in assay [1], in [2], in [3], in [4] and in [5] was over 100 µM throughout. Also, the TGI in [6], in [7] and in assay [8] was over 100 µM throughout.
As for `COCCNC(=O)C1C(=O)N(CCOC)C(=O)/C1=N/N` (configuration not stated), the TGI in assay [9], in [1], in assay [2], in assay [3], in [7] and in assay [8] was over 100 µM throughout.
As for `CCCOC(=O)C1CCC(=O)N1C(=O)C(Cl)Cl` (configuration not stated), the TGI in assay [9], in assay [1], in assay [3], in assay [5], in assay [6] and in [7] was over 100 µM throughout. Also, the TGI in assay [8] was over 100 µM.
For the molecule `O=C(CC(O)(c1ccccc1)c1ccc(Cl)cc1)NC(=O)c1ccccc1O` (configuration not stated), the TGI in [9] was 32 µM; in assay [1], over 100 µM; in assay [2] it was 46.8 µM; in [3] it was 43.2 µM; in assay [4], 49 µM; in [5], 25.6 µM. In addition, the results for the TGI in assay [6], in assay [7] and in assay [8] were 21.1 µM, 70.6 µM and 21.9 µM, respectively.
For `CC/C(=C(\c1ccccc1)c1ccc(OCCN(C)C)cc1)c1ccccc1`, the GI50 in assay [9] is 3.34 µM; in [1], 2.95 µM; in [3], 2.33 µM; in assay [4], 1.39 µM; in assay [6], 0.878 µM; in assay [7] it was 1.91 µM. Also, the GI50 in assay [8] is 2.55 µM.
In the case of `[N-]=[N+]=Nc1ccc(S(=O)(=O)Oc2cc(OS(=O)(=O)c3ccc(N=[N+]=[N-])cc3)cc(OS(=O)(=O)c3ccc(N=[N+]=[N-])cc3)c2)cc1`, the TGI in assay [9] is over 10 µM; in assay [1], over 10 µM; in [2] it was over 100 µM; in [3], over 100 µM; in assay [4], over 100 µM; in [5], over 100 µM. The TGI in assay [6], in [7] and in [8] was over 100 µM throughout.
Consider `COc1ccc(NC(=O)CC/C(CC(=O)c2ccco2)=N/Nc2ccc([N+](=O)[O-])cc2[N+](=O)[O-])cc1`, for which the TGI in [9] was over 100 µM; in [1], over 100 µM; in assay [2], over 100 µM; in [3], 85.1 µM; in assay [4], over 100 µM; in [5], over 100 µM. In addition, the TGI in assay [6], in [7] and in assay [8] was over 100 µM in each case.
For `CC(=O)OC1COC(N2C(=O)C(=O)c3c(C)cc(Cl)nc32)C(OC(C)=O)C1OC(C)=O` (configuration not stated), the TGI in assay [9], in assay [1], in assay [2], in assay [3], in assay [4] and in assay [5] was over 100 µM throughout. In addition, the TGI in [7] and in [8] was over 100 µM each time.
Turning to `COC1OC(OC)C2C(c3c(C)cc(C)cc3C)=NOC12` (configuration not stated), the TGI in assay [1], in assay [3], in assay [4], in assay [5], in assay [6] and in assay [7] was over 100 µM each time. This molecule also returned a TGI in assay [8] of over 100 µM.
Regarding `COC(=O)C1=Cc2cc3c(cc2[C@H](c2ccc4c(c2)OCO4)C1C(=O)OC)OCO3` (some centres not stated), the TGI in assay [9], in assay [1], in [2], in assay [3], in assay [4] and in assay [5] was over 100 µM throughout. Further, the TGI in assay [6], in assay [7] and in assay [8] was over 100 µM in each case.
`COc1ccc(C(=O)O/N=C2\CCCC\C2=C/c2ccccc2)cc1`: the TGI in assay [9] was over 100 µM; in assay [1], over 100 µM; in [2], 81.2 µM; in assay [3], over 100 µM; in assay [5], over 100 µM; in assay [6], over 100 µM.
As to `COC1CCC(=C2C(=O)OC(C)(C)OC2=O)N1` (configuration not stated), the TGI in assay [9], in [1], in assay [2], in assay [3], in [4] and in assay [5] was over 100 µM each time. The TGI in assay [6], in assay [7] and in [8] was over 100 µM each time.
As for `COC(=O)C(=O)C(C#N)c1cccc2ccccc12` (configuration not stated), the concentration for total growth inhibition (TGI) in [9], in assay [1], in assay [2], in assay [3], in [5] and in assay [6] was over 100 µM each time. In addition, the TGI was over 100 µM in assay [7] and 99.7 µM in assay [8].
Take `CCCCN(CCCC)C(=Nc1ccccc1)N(CCCC)CCCC`: the TGI in assay [1] was 15.8 µM; in [2] it was 24.6 µM; in assay [3], 24.4 µM; in assay [4], 25.6 µM; in [5], 20.5 µM; in assay [6], 15.4 µM. For the same molecule, the TGI amounted to 22.5 µM in assay [7] and 22.6 µM in assay [8].
Consider `CCN(CC)CCN(C)CC(C)(C)C(=O)/C=C/c1ccccc1`, for which the TGI turned out to be 22.7 µM in assay [9]; 24.2 µM in assay [1]; 19 µM in [2]; 38.4 µM in [3]; 37 µM in [5]; 27.7 µM in assay [6]. Besides, the total growth inhibition concentration (TGI) in assay [7] was found to be 28.5 µM; in assay [8], 25.4 µM.
